Consider nine compounds from patent US11534410B2, “Amphotericin loaded PEGylated lipid nanoparticles and methods of use” (University of Mississippi, priority 2018, dated 2022).

For series [1], the system named is wild type (WT) Candida albicans (ATCC90028). The series can be described thus: Microdilution (CLSI) and recovery assay, antifungal/fungicidal activity. Type of series: cell-based. The following applies: for MFC: recovery assay. On the procedure: FIG. 5: Antifungal activity of amphotericin B formulations. […] Each formulation was tested at 5.0-0.01 μg/ml with 2-fold dilutions. Color bar represents relative growth. A. Antifungal activity on Day 1 post AmB formulation in wild type (WT) Candida. B. & C. Antifungal activity on Day 10 post AmB formulation in WT and AmB resistant Candida strains, respectively. Each experiment was performed in triplicates.
In vitro fungicidal activity: A microdilution experiment was performed in wild type (WT) Candida albicans (ATCC90028) and Aspergillus fumigatus (ATCC 204305) as per Clinical & Laboratory Standards Institute (CLSI) protocols^37-39. […] Recovery assay was performed for fungicidal activity at both day 1 and day 10 post preparation.

Series [2] has as its system AmB resistant Candida strain (ATCC 200955). The series can be described thus: Microdilution and fungicidal assay, AmB resistant strain. The following applies: Day10. In kind it is cell-based, Candida albicans. A general note: Dilution methods test growth across graded concentrations, often in twofold steps.
Protocol: Each formulation was tested at 5.0-0.01 μg/ml with 2-fold dilutions. […] B. & C. Antifungal activity on Day 10 post AmB formulation in WT and AmB resistant Candida strains, respectively. Each experiment was performed in triplicates.
For series [3] the following is noted: cited from earlier work.
Series [4] is described as follows: Lipid screening: solubility/dispersibility of amphotericin B in lipids. In kind it is physicochemical. The procedure: Lipid screening is a crucial step, in order to select the lipids with the highest drug solubility and/or dispersibility. Amphotericin B (1 mg) was added to the lipid at 75° C., upon stirring at 2000 rpm for 10 mins, and observed with naked eye as well as under the microscope for precipitation/aggregation. Amphotericin B has a relatively higher solubility at elevated temperature in Precirol™ ATO 5 (glyceryl palmitostearate) in comparison with the other lipids, such as Compritol® ATO 888 (glyceryl behenate), stearic acid, glyceryl mono stearate (GMS) and glyceryl di-stearate (Table 1). […] While screening liquid lipids, amphotericin B better dispersed/solubilized in castor oil (Table 1).

Series [5] concerns retinal pigmented epithelial cells (ATCC ARPE-19). Type of series: cell-based. The procedure: In vitro cytotoxicity evaluation: The placebo (no Amphotericin B) formulations PEG-NLC and NLC alone were tested for cytotoxicity towards the retinal pigmented epithelial cells (ATCC ARPE-19) in a concentration range of 0.03%-1%. […] They were not cytotoxic to ARPE-19 cells up to a highest concentration of 30 μg/mL, indicating a high therapeutic index.

[6] abbreviates: amphotericin B (1 mg) added to the solid lipid at 75° C., 2000 rpm for 10 mins.

Converted amounts (≈) assume the structure as drawn. Like-named read-outs stand apart in the source and are kept apart here.

For `C[C@@H]1[C@H](O)[C@@H](C)/C=C/C=C/C=C/C=C/C=C/C=C/C=C/[C@H](O[C@@H]2O[C@H](C)[C@@H](O)[C@H](N)[C@@H]2O)C[C@@H]2O[C@](O)(C[C@@H](O)C[C@@H](O)[C@H](O)CC[C@@H](O)C[C@@H](O)CC(=O)O[C@H]1C)C[C@H](O)[C@H]2C(=O)O` [AmB, Amphotericin B], in series [1] (Day1 post preparation), the MIC is on record as 0.62/0.62 μg/mL and the MFC is listed as 1.25/1.25 μg/mL. Also, in series [1] (Day10 post preparation), the MIC is recorded as 0.62/0.62 μg/mL and the MFC is reported as 1.25/1.25 μg/mL. In series [2], this compound returned an MFC of 2.5 µg/mL (≈ 2.71 µM) and an MIC of 2.5 µg/mL (≈ 2.71 µM). For the same compound, in series [3], the “log P” value is recorded as 0.8; the “solubility in water, methanol, and ethanol” value was “practically insoluble”.
With `CCCCCCCCCCCCCC(=O)OCC(COC(=O)CCCCCCCCCCCCC)OC(=O)CCCCCCCCCCCCC` [Dynasan 114, glyceryl trimyristate], the “Solubility/Dispersion (Solid Lipid)” value in series [4] (setting [6]) is given as “−”.
The same measure, in the same setting: as for `CCCCCCCCCCCCCCCC(=O)OCC(COC(=O)CCCCCCCCCCCCCCC)OC(=O)CCCCCCCCCCCCCCC` [Dynasan 116, glyceryl tripalmitate], the entry is “−”.
As to `CCCCCCCCCCCCCCCCCC(=O)OCC(O)CO` (stereo not shown) [GMS, glyceryl mono stearate], the “Solubility/Dispersion (Solid Lipid)” value in series [4] is recorded as “−”.
As to `CCCCCCCC/C=C\CCCCCCCC(=O)O` [Oleic acid], the “Solubility/Dispersion (Liquid Lipid)” value in series [4] is “−”.
On the same count and under the same terms, as for Castor Oil, the entry is “+”; as for Sesame Oil, “−”.
Same read-out and setting: as for Soy bean oil, the entry is “−”.
Take benzalkonium chloride: the “IC50 (cytotoxicity)” value in series [5] turned out to be 3.9 µg/mL.

One may read the MIC as the lowest concentration found to suppress growth. In general, MFC refers to the lowest tested concentration that kills the fungus rather than only halting it. A low value points to more potent killing. In general, log P refers to the decadic logarithm of the partition coefficient of the neutral form, usually between octanol and water.
